Tests used:
[1] = test system: Mycobacterium tuberculosis; test: Antibacterial activity against Mycobacterium tuberculosis H37Rv ATCC 25618 after 8 to 9 days by BacT/Alert MP bottle assay; format: functional
[2] = Inhibition of Mycobacterium tuberculosis shikimate dehydrogenase using shikimic acid as substrate in presence of NADP+ by spectrophotometric analysis
[3] = Cytotoxicity against human HepG2 cells assessed as reduction in cell viability by Alamar blue assay; format: toxicity, cell-based
[4] = Selectivity index, ratio of IC50 for human HepG2 cells to MIC for Mycobacterium tuberculosis H37Rv ATCC 25618; format: toxicity, cell-based; conditions: read-out: Selectivity Index
[5] = Cytotoxicity against African green monkey Vero cells assessed as reduction in cell viability by Alamar blue assay; format: toxicity, cell-based; conditions: African green monkey (Chlorocebus sabaeus)
[6] = Selectivity index, ratio of IC50 for African green monkey Vero cells to MIC for Mycobacterium tuberculosis H37Rv ATCC 25618; format: toxicity, cell-based; conditions: read-out: Selectivity Index

`c1ccc(C2=Nn3c(nnc3-c3ccncc3)SC2)cc1` showed an MIC [1] of 8 µg/mL.

With `Fc1ccc(C2=Nn3c(nnc3-c3ccc(Br)cc3)SC2)cc1` the MIC [1] was > 8 µg/mL.

In the case of `Fc1ccc(C2=Nn3c(nnc3-c3ccc(Cl)cc3)SC2)cc1`, the MIC [1] is reported as > 8 µg/mL.

Work on `c1ccc(C2=Nn3c(nnc3-c3ccccc3)SC2)cc1` yielded an IC50 [2] of 28.38 µg/mL.

With `Fc1ccc(C2=Nn3c(Cc4ccc5ccccc5c4)nnc3SC2)cc1` the MIC [1] was > 8 µg/mL.

In the case of `COc1ccc(-c2nnc3n2N=C(c2ccc(F)cc2)CS3)cc1`, the MIC [1] is reported as > 8 µg/mL.

In the case of `COc1ccc(C2=Nn3c(nnc3-c3ccccc3)SC2)cc1`, the MIC [1] is reported as > 8 µg/mL.

For `Fc1ccc(C2=Nn3c(nnc3-c3ccncc3)SC2)cc1`, the MIC [1] was > 8 µg/mL.

With `Fc1ccc(C2=Nn3c(nnc3-c3ccncc3F)SC2)cc1` the MIC [1] was > 8 µg/mL.

For `Fc1ccc(C2=Nn3c(nnc3-c3ccccc3)SC2)cc1`, the MIC [1] was > 8 µg/mL.

In the case of `O=[N+]([O-])c1ccc(C2=Nn3c(nnc3-c3ccncc3F)SC2)cc1`, the MIC [1] is reported as 2.8 µM, the IC50 [3] is reported as 166 µM and the selectivity ratio [4] is reported as 59.2. It also gave an IC50 [2] of 73.57 µg/mL, an IC50 [5] of 355 µM and a selectivity ratio [6] of 127.

In the case of `COc1ccc(-c2nnc3n2N=C(c2ccccc2)CS3)cc1`, the MIC [1] is reported as > 8 µg/mL.

For `Fc1cnccc1-c1nnc2n1N=C(c1ccccc1)CS2`, the MIC [1] was > 8 µg/mL.

For `COc1ccc(C2=Nn3c(nnc3-c3ccc(OC)cc3)SC2)cc1`, the MIC [1] was > 8 µg/mL.

With `O=[N+]([O-])c1ccc(C2=Nn3c(Cc4ccc5ccccc5c4)nnc3SC2)cc1` the MIC [1] was 9.95 µM, the IC50 [3] was 72.6 µM and the selectivity ratio [4] was 7.29. The IC50 [2] was 11.68 µg/mL, the IC50 [5] was 69.7 µM and the selectivity ratio [6] was 7.01.

`CO[C@H]1/C=C/O[C@@]2(C)Oc3c(C)c(O)c4c(O)c(c(/C=N/N5CCN(C)CC5)c(O)c4c3C2=O)NC(=O)/C(C)=C\C=C\[C@H](C)[C@H](O)[C@@H](C)[C@@H](O)[C@@H](C)[C@H](OC(C)=O)[C@@H]1C` [RIFAMPIN] showed an MIC [1] of 0.25 µg/mL.

In the case of `O=[N+]([O-])c1ccc(C2=Nn3c(nnc3-c3ccc(Br)cc3)SC2)cc1`, the MIC [1] is reported as 0.6 µM, the IC50 [3] is reported as 10.4 µM and the selectivity ratio [4] is reported as 17.3. The IC50 [2] was 86.39 µg/mL, the IC50 [5] was 13.9 µM and the selectivity ratio [6] was 23.2.

For `COc1ccc(C2=Nn3c(nnc3-c3ccc(Cl)cc3)SC2)cc1`, the MIC [1] was > 8 µg/mL.

Compound `COc1ccc(C2=Nn3c(nnc3-c3ccc(Br)cc3)SC2)cc1` has an MIC [1] of 8 µg/mL.

With `O=[N+]([O-])c1ccc(C2=Nn3c(nnc3-c3ccccc3)SC2)cc1` the MIC [1] was > 8 µg/mL.

For `COc1ccc(C2=Nn3c(Cc4ccc5ccccc5c4)nnc3SC2)cc1`, the MIC [1] was > 8 µg/mL.

In the case of `Clc1ccc(-c2nnc3n2N=C(c2ccccc2)CS3)cc1`, the MIC [1] is reported as > 8 µg/mL.

Work on `Fc1ccc(-c2nnc3sc(COc4ccccc4)nn23)cc1` yielded an MIC [1] of 24.5 µM, an IC50 [3] of 46.6 µM and a selectivity ratio [4] of 1.9. For the same compound, the IC50 [2] was 23 µg/mL, the IC50 [5] was 71 µM and the selectivity ratio [6] was 2.9.

Work on `Brc1ccc(-c2nnc3n2N=C(c2ccccc2)CS3)cc1` yielded an MIC [1] of 0.67 µM, an IC50 [3] of 235 µM and a selectivity ratio [4] of 350. It also gave an IC50 [2] of 252.5 µg/mL, an IC50 [5] of 58.5 µM and a selectivity ratio [6] of 87.3.

In the case of `COc1ccc(-c2nnc3n2N=C(c2ccc([N+](=O)[O-])cc2)CS3)cc1`, the MIC [1] is reported as > 8 µg/mL.

`Clc1ccc(-c2nnc3sc(COc4ccc(Br)cc4)nn23)cc1` gave an MIC [1] of 0.5 µg/mL.

With `Brc1ccc(OCc2nn3c(-c4ccc(Br)cc4)nnc3s2)cc1` the MIC [1] was 0.5 µg/mL.

In the case of `c1ccc(C2=Nn3c(Cc4ccc5ccccc5c4)nnc3SC2)cc1`, the MIC [1] is reported as > 8 µg/mL.

In the case of `COc1ccc(C2=Nn3c(nnc3-c3ccncc3)SC2)cc1`, the IC50 [2] is reported as 20.99 µg/mL.

Compound `NNC(=O)c1ccncc1` [ISONIAZID] has an MIC [1] of 0.12 µg/mL.

Work on `O=[N+]([O-])c1ccc(C2=Nn3c(nnc3-c3ccc(Cl)cc3)SC2)cc1` yielded an MIC [1] of 8 µg/mL.

With `COc1ccc(C2=Nn3c(nnc3-c3ccncc3F)SC2)cc1` the MIC [1] was 8 µg/mL.

Reference: ChEMBL document CHEMBL3875182 (Bioorg Med Chem, 2017)
